Reference: ChEMBL document CHEMBL1149094, “3-(4-Aroyl-1-methyl-1H-pyrrol-2-yl)-N-hydroxy-2-propenamides as a new class of synthetic histone deacetylase inhibitors. 3. Discovery of novel lead compounds through structure-based drug design and docking studies” (J Med Chem, 2004)

Assays:
Histone deacetylase HD2 [1] = molecular target: T1, Histone deacetylase HD2 (Zea mays, UniProt Q94F81); assay: Inhibition of maize histone deacetylase 2
T1 sequence (Q94F81 whole entry): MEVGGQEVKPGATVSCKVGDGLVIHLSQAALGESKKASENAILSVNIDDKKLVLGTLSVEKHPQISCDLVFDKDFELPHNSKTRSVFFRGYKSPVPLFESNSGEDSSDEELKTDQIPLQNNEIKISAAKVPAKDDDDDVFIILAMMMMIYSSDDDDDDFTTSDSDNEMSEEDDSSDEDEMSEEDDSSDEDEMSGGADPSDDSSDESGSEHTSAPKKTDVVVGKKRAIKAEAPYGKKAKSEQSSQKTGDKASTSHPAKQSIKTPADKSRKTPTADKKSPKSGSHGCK

Histone deacetylase HD2 [2] = molecular target: T1, Histone deacetylase HD2; assay: Inhibition of maize Histone deacetylase 2
Histone deacetylase 1 [3] = molecular target: T2, Histone deacetylase 1 (Mus musculus, UniProt O09106); assay: Inhibition of mouse Histone deacetylase 1 (HDAC1) receptor
[4] = molecular target: T3, Histone deacetylase HD2 (Zea mays) (UniProt Q94F81); assay: Percent inhibition of maize histone deacetylase 2 receptor at a dose of 30 uM
T3 sequence (whole entry): T1 sequence (Q94F81 whole entry)

Histone deacetylase 1 [5] = molecular target: T2, Histone deacetylase 1; assay: Inhibition of mouse HDAC1

T2 sequence (O09106 whole entry): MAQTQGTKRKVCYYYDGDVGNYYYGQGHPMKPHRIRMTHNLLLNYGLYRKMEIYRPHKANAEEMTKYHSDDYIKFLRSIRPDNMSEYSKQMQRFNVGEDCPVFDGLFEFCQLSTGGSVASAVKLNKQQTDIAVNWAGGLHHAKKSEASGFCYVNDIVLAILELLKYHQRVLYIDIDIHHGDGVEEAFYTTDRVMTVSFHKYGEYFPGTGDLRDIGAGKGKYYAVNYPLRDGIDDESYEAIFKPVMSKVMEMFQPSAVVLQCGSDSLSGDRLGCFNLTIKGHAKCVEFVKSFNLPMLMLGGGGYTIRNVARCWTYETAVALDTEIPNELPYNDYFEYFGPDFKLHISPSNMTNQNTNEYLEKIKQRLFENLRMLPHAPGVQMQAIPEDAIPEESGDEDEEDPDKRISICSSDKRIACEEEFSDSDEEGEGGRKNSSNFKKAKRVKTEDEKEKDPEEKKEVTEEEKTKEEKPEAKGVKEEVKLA

IC50 (Histone deacetylase HD2 [1]) [µM] | IC50 (Histone deacetylase HD2 [2]) [µM] | IC50 (Histone deacetylase 1 [3]) [µM] | inhibition [4] [%] | IC50 (Histone deacetylase 1 [5]) [µM] | Compound
0.28 | 0.251 | 0.25 | 95 | 0.229 | Cn1c(/C=C/C(=O)NO)ccc1C(=O)c1ccccc1
0.05 | 0.0501 | 0.78 | 97 | 0.776 | Cn1cc(/C=C/C(=O)NO)cc1C(=O)c1ccccc1
